Holding throughout (assay type): binding
Assay [1] deals with T1, Ca IleRS (isoleucyl-tRNA synthetase) (Candida albicans, UniProt Q59RI1).
T1 sequence (Q59RI1 1-856): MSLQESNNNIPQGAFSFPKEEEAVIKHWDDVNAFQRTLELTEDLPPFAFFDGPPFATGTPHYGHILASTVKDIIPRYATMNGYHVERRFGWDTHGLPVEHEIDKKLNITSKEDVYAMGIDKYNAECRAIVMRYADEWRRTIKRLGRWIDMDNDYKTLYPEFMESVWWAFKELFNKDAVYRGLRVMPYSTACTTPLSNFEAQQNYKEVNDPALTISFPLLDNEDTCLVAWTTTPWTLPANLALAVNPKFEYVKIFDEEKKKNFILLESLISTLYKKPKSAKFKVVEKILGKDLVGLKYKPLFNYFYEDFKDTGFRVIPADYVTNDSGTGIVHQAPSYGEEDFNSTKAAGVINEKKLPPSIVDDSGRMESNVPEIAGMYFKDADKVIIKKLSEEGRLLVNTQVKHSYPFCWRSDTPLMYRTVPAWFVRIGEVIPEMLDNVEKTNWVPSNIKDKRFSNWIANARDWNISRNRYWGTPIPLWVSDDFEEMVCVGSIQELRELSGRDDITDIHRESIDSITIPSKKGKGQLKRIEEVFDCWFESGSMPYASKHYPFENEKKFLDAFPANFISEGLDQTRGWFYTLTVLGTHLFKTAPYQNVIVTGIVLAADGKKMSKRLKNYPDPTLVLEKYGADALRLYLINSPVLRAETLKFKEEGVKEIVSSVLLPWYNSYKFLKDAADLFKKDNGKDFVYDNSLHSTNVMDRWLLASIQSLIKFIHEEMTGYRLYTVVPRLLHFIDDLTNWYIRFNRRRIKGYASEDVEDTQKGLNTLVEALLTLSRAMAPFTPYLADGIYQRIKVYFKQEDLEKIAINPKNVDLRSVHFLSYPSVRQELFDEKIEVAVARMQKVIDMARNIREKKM
Nature of the assay: X-ray crystal structure at […] Å.

The target of assay [2] is T2, Ca IleRS (isoleucyl-tRNA synthetase) (Candida albicans, UniProt Q59RI1).
T2 sequence (Q59RI1 1-1088): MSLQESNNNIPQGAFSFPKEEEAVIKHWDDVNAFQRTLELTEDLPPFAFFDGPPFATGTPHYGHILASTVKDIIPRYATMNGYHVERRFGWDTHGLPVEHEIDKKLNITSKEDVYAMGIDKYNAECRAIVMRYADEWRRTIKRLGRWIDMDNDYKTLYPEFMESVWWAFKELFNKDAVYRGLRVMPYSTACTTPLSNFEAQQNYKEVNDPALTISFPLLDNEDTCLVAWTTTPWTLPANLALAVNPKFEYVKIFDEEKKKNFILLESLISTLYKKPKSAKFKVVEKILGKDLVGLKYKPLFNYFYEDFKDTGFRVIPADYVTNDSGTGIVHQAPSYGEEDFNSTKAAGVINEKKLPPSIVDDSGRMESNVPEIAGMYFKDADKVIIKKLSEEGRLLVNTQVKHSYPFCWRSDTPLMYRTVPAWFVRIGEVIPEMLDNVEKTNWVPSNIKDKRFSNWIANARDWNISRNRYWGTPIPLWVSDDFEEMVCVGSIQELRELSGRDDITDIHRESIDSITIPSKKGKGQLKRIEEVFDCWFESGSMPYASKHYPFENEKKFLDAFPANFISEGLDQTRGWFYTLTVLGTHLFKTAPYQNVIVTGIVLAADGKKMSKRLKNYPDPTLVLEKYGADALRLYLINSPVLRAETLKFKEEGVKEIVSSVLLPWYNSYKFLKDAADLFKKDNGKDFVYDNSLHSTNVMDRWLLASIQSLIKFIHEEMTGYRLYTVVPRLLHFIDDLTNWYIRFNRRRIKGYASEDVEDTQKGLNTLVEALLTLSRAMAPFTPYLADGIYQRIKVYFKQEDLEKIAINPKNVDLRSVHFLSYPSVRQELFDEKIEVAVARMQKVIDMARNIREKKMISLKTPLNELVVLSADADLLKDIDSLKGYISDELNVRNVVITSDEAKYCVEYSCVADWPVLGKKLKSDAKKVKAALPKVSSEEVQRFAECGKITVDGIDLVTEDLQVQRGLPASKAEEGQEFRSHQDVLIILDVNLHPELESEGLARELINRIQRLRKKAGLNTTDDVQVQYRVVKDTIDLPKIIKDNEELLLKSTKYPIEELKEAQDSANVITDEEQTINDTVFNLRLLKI
The assay is described as follows: microscale thermophoresis. In general terms: In MST a laser heats a spot of the sample, and binding alters the fluorescence response.

The target of assay [3] is T3, Ca IleRS mutant (isoleucyl-tRNA synthetase) (Candida albicans, UniProt Q59RI1, I601F/T599H).
T3 sequence (Q59RI1 1-1088 T599H/I601F): T2 sequence (Q59RI1 1-1088)
Nature of the assay: microscale thermophoresis.

As for `CC[C@H](C)[C@H](N)C(=O)OP(=O)(O)OC[C@H]1O[C@@H](n2cnc3c(N)ncnc32)[C@H](O)[C@@H]1O` [Ile-AMP], the “X-ray crystal structure at 2.9 Å (ligand co-purified, none added)” value in assay [1] is given as “The crystal structure of Ca IleRS revealed clear electron density for Ile-AMP at the synthetic active site”.

As a reminder, the Kd is the equilibrium constant for the complex coming apart. Consider `C/C(=C\C(=O)OCCCCCCCCC(=O)O)C[C@@H]1OC[C@H](C[C@@H]2O[C@H]2[C@@H](C)[C@H](C)O)[C@@H](O)[C@H]1O` [mupirocin], for which the Kd in assay [2] and in assay [3] was 103 to 111 µM each time.

Source of the values: article PMC7191050 (Molecules and Cells, 2020).
